The values below come from patent US20070099905A1, “Combinations of drugs for the treatment of neoplasms” (priority 2002, published 2007).

“And” between values parts separate entries of the source, which are not always exact repeats. Equal entries are not always repeated. Where two headings read alike, the source gives them in different places.

In data set [1] the test system is A549 human lung tumor xenografts. In words: A549 human lung tumor xenograft model. Particulars: for Reduction in Tumor Volume (% decrease relative to control), positive control: 20 mg/Kg (M, W, F); for Reduction in Tumor Volume (% decrease relative to control), positive control / Tumor volume compared to control animals, single agent alone: 2 week treatment; for Tumor volume compared to control animals, single agent alone: female SCID mice. Format: in vivo, SCID mice. On the procedure:
(§1) All experiments were carried out using male or female 6-8 week old SCID Hsd:ICR(CD-1) mice (Harlan, Indianapolis, Ind.). A-549 cells were harvested, resuspended in DMEM minus serum, and injected subcutaneously into the right flanks (4×10^6 cells/flank in a 300 μL volume). HCT 116 cells were harvested, resuspended in McCoy's 5A minus serum, and injected subcutaneously into the right and left flanks (5×10^6 cells/flank in a 300 μL volume). Tumor volumes were determined by measuring the length (1) and the width (w) and calculating the volume (V=1 w^2/2). Depending on the study, the tumors were between about 150 mm^3-about 800 mm^3 at the time of animal randomization into treatment groups (n=8-10 mice per group).
(§2) Control animals received 200 μL injections of vehicle only.
(§3) Evaluation of the results included statistical analysis of differences in tumor size between test and control groups at the end of each treatment period. Group means were compared using a one-way ANOVA. If the ANOVA was significant, i.e., p≦0.05, a Dunnett's multiple comparison test was used to determine which groups were different. Only animals surviving to the completion of the treatment period were included in the analysis.
A549 cells were injected subcutaneously into female SCID mice and the tumor volumes were allowed to reach about 400 mm^3 prior to animal randomization. Animals were administered one of the above combinations or saline vehicle control intraperitoneally five times per week (each day, Monday through Friday) for two weeks.
A549 cells were injected subcutaneously into male SCID mice and the tumor volumes were allowed to reach about 400 mm^3 prior to animal randomization. Animals were administered drug combination or vehicle control intraperitoneally five times per week (each day, Monday through Friday) for three weeks. Treatment was stopped for a one week recovery period, then continued as before for an additional two weeks.
Background: A xenograft is tissue or cells of one species grown in another, often human tumour cells in immunodeficient mice.

The test system of data set [2] is endo-exonuclease. The settings on record: PCT Publication No. WO 01/35935; cited from earlier work.
The subject of data set [3] is phosphatases of regenerating liver (PRL). The settings on record: cited from earlier work.
For data set [4] the following is noted: mice, single intraperitoneal injection 10 mg/kg; cited from earlier work.
Data set [5] deals with T1, protein tyrosine phosphatase 1B (PTP1B) (Homo sapiens, UniProt P18031).
T1 sequence (P18031 1-435): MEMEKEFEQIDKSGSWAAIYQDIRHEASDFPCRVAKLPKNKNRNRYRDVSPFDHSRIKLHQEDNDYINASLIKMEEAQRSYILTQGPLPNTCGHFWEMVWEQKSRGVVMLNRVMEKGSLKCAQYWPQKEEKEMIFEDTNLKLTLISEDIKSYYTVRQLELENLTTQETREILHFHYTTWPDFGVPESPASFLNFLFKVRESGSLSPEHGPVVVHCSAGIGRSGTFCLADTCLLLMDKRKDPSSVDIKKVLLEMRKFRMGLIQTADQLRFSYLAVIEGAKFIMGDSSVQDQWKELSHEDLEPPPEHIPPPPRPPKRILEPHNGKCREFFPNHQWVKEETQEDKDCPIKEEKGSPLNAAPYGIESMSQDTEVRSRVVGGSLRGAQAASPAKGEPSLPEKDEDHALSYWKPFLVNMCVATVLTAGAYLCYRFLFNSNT
The settings on record: cited from earlier work.

For data set [6] the following is noted: mouse, in vivo. On the procedure:
Unless otherwise stated, drugs were administered daily Monday to Friday. Paclitaxel was administered 3 days per week, Monday, Wednesday, and Friday only. All drugs were administered by intraperitoneal injection in a volume of 100 μL/25 grams. Animals undergoing combination therapy received two individual injections for a total of 200 μL per mouse. Control animals received 200 μL injections of vehicle only.

The conditions of data set [7]: gastrointestinal tract; cited from earlier work.
The test system of data set [8] is HCT 116. Description: HCT 116 human colon cancer xenograft model. It is filed as in vivo, SCID mice. The settings on record: 25 mg/Kg (M-F). On the procedure: as §1, §2, §3
The conditions of data set [9]: cited from earlier work.

As to `CC(=O)O[C@H]1C(=O)[C@@]2(C)[C@H]([C@H](OC(=O)c3ccccc3)[C@]3(O)C[C@H](OC(=O)[C@H](O)[C@@H](NC(=O)c4ccccc4)c4ccccc4)C(C)=C1C3(C)C)[C@]1(OC(C)=O)CO[C@@H]1C[C@@H]2O` [Taxol, paclitaxel], the “Reduction in Tumor Volume (% decrease relative to control), positive control” value was 24% and 29% in data set [1]; 24% in data set [1] (listed as paclitaxel). Moreover, the “Tumor volume less than vehicle control” value in [1] (20 mg/Kg, end of first treatment period (3 weeks), male SCID mice) is 27%.
As for `N=C(N)c1ccc(OCCCCCOc2ccc(C(=N)N)cc2)cc1` [pentamidine], the “Inhibition of endo-exonuclease activity” value in [2] is “inhibit the activity”. The “Tumor volume compared to control animals, single agent alone” value in [1] is listed as “no decrease in tumor volumes”. Besides, the “Inhibition of PRL” value in [3] is “potent inhibitor”. The Tissue distribution result in data set [4] is “concentration in the kidneys was the highest, followed by that in the liver”. Besides, in [5], the “Inhibition of PTP1B” value is listed as “effective inhibitor”.
As to `CN(C)CCCN1c2ccccc2Sc2ccc(Cl)cc21` [chlorpromazine], the “Time to sedation after administration” value in data set [6] (SCID Hsd:ICR(CD-1), ip) was at most 10 min. The “Sedation and hypothermia at lower doses” value in data set [6] was “reduced period of sedation and associated hypothermia”. Moreover, in data set [7], the Absorption entry is recorded as “readily absorbed”. In addition, in data set [1], the “Tumor volume compared to control animals, single agent alone” value was “no decrease in tumor volumes”.
In the case of `O=c1[nH]cc(F)c(=O)[nH]1` [5-FU, 5-fluorouracil], the “Reduction in Tumor Volume (% decrease relative to control), positive control” value in data set [8] is listed as 47%.
For `N=C(N)c1ccc(OCCCCCOc2ccc(C(=N)N)cc2)cc1` [Pentamidine isethionate, 4,4′-diamidino-diphenoxypentane di(β-hydroxyethanesulfonate)], the Solubility result in data set [9] (ether, acetone, and chloroform) is “insoluble”; in [9] (water and glycerin) it was “soluble”.
